Assay results taken from US20210269815A1, “GENETICALLY MODIFIED PLANT AND USES THEREOF” (IST AUSTRIA, priority 2018, published 2021).

Key:
Type in all cases: in vivo, Arabidopsis
SYAC1 expression = assay: Genome wide transcriptome profiling of roots exposed to auxin, cytokinin and both hormones; conditions: 3 hours of treatment, 1 μM auxin, 10 μM cytokinin
Protocol: The syac1-1 (salk_151420C, Col-0, KAN^R) and syac1-2 (salk_151662B, Col-0, KAN^R) T-DNA insertion lines were obtained from the Salk Institute. The syac1-3 (GABI-KAT 760F05, Col-0, SUL^R) and syac1-4 (GABI-KAT 961C03, Col-0, SUL^R) T-DNA insertion lines were obtained from the GABI KAT seed collection. The syac1-5 CRISPR line was prepared in collaboration with the VBCF Protein Technologies Facility (www.vbcf.ac.at) (see below). The genetically modified fluorescent-protein marker lines in Col-0 background have been described elsewhere: mCherry tagged wave line 6, 9, 13, 18, 25, 29, 34, 127, 129, 131, 138 (Geldner et al., 2009, Plant J. 59, 169-178), SYP61:SYP61-CFP (Drakakaki et al., 2012, Cell Res. 22, 413-424). The echidna mutant has been described in (Gendre et al., 2011, PNAS 108, 8048-8053) and yip4a-2 yip4b-1 in (Gendre et al., 2013, The Plant Cell 25, 2633-2646). […]
To search for novel molecular components and mechanisms of auxin-cytokinin cross-talk, genome wide transcriptome profiling of roots exposed to auxin, cytokinin and both hormones simultaneously, was performed. […] This SYAC1 expression profile in roots was further validated by quantitative real-time (RT-qPCR) (FIG. 2A). […]

SYAC1 promoter = assay: pSYAC1:GUS / pSYAC1:nlsGFP reporter expression in roots
Protocol: The syac1-1 (salk_151420C, Col-0, KAN^R) and syac1-2 (salk_151662B, Col-0, KAN^R) T-DNA insertion lines were obtained from the Salk Institute. The syac1-3 (GABI-KAT 760F05, Col-0, SUL^R) and syac1-4 (GABI-KAT 961C03, Col-0, SUL^R) T-DNA insertion lines were obtained from the GABI KAT seed collection. The syac1-5 CRISPR line was prepared in collaboration with the VBCF Protein Technologies Facility (www.vbcf.ac.at) (see below). The genetically modified fluorescent-protein marker lines in Col-0 background have been described elsewhere: mCherry tagged wave line 6, 9, 13, 18, 25, 29, 34, 127, 129, 131, 138 (Geldner et al., 2009, Plant J. 59, 169-178), SYP61:SYP61-CFP (Drakakaki et al., 2012, Cell Res. 22, 413-424). The echidna mutant has been described in (Gendre et al., 2011, PNAS 108, 8048-8053) and yip4a-2 yip4b-1 in (Gendre et al., 2013, The Plant Cell 25, 2633-2646). Seeds of Arabidopsis were plated and grown on square plates with solid half strength Murashige and Skoog (MS) medium (Duchefa) supplemented with 0.5 g L^−1 MES, 10 g L^−1 Sucrose, 1% agar and pH adjusted to 5.9. The plates were incubated at 4° C. for 48 h to synchronize seed germination and then vertically grown under a 16:8 h day/night cycle photoperiod at 21° C. Cytokinin and auxin treatments were performed with the N6-benzyladenine cytokinin derivative (Sigma) and Naphthaleneacetic acid (Sigma), respectively. Short treatments (6 hours) for GUS/GFP expression were performed with 10 μM cytokinin and 1 μM auxin (unless indicated differently). For root growth transient assay 0.1 μM cytokinin and 0.05 μM auxin was used. Estradiol treatment was performed with β-Estradiol (Sigma).
For promoter analysis of SYAC1, an upstream sequence of 2522 bp was amplified by PCR and introduced into the pDONRP4-P1R entry vector. Then transcriptional lines (pSYAC1:GUS, pSYAC1:nlsGFP) were created: for pSYAC1:GUS, an LR reaction with SYAC1 promoter in pDONORP4-P1R, pEN-L1-S-L2,0 and pK7m24GW,0 vectors was performed. For pSYAC1:nlsGFP line, an LR reaction with SYAC1 promoter in pDONORP4-P1R, pEN-L1-NF-L2,0 and pB7m24GW,0 was performed. […]

[1] = tested on: root tip of wild type control plants; assay: Effect of excess copper on the primary root of seedlings grown on agar; conditions: 5 days on normal media, then transferred to media containing 50 μM CuSO4
Protocol: Plants were grown for 5 days on normal AM+ media and then transferred to media containing 50 μM CuSO4.

## O=C(O)Cc1cccc2ccccc12 [auxin, Naphthaleneacetic acid]
SYAC1 expression
  SYAC1 expression compared to an untreated control: 2.47±0.20

## O=S(=O)([O-])[O-].[Cu+2] [CuSO4]
SYAC1 promoter; 50 μM CuSO4 in ½MS plus Agar substrate
  SYAC1 promoter-driven GUS expression in reporter lines: able to trigger
[1]
  swelling of cells at the root tip: trigger swelling of cells at the root tip

## c1ccc(CNc2ncnc3nc[nH]c23)cc1 [cytokinin, N6-benzyladenine]
SYAC1 expression
  SYAC1 expression compared to an untreated control: 1.53±0.19
SYAC1 promoter; roots, 6 hours exposure
  pSYAC1 reporter signal (pSYAC1:GUS, pSYAC1:nlsGFP): enhanced reporter signal in the quiescent center (QC) and columella initials (CI)

## NC1(C(=O)O)CC1 [ACC, 1-aminocyclopropane-1-carboxylic acid]
SYAC1 promoter; roots treated with ACC only or in combination with cytokinin, auxin or both
  enhancement of pSYAC1:GUS expression: No enhancement
